Experimental data: the NIST ThermoML archive (doi:10.1021/je2010209)

Assays:
[1] = xn = mol fraction of the nth substance listed; conditions: 101 kPa, Liquid, x1 = 1; for speed of sound: Sing-around technique in a fixed-path interferometer; for mass density: Vibrating tube method
[2] = 101 kPa, Liquid; for speed of sound: Sing-around technique in a fixed-path interferometer; for mass density: Vibrating tube method

CCCCn1cc[n+](C)c1.F[B-](F)(F)F [1-butyl-3-methylimidazolium tetrafluoroborate] + COCCO
[1]
Conditions	mass density [kg/m3]	speed of sound [m/s]
288.15 K	1206.51	1589
293.15 K	1202.95	1577
298.15 K	1199.39	1565
303.15 K	1195.82	1554
308.15 K	1192.27	1542
313.15 K	1188.72	1531
318.15 K	1185.17	1520

CCCCn1cc[n+](C)c1.F[B-](F)(F)F [1-butyl-3-methylimidazolium tetrafluoroborate]
[2]
Conditions	mass density [kg/m3]	speed of sound [m/s]
288.15 K	1206.51	1589
293.15 K	1202.95	1577
298.15 K	1199.39	1565
303.15 K	1195.82	1554
308.15 K	1192.27	1542
313.15 K	1188.72	1531
318.15 K	1185.17	1520

COCCOCCOCCO [2-[2-(2-methoxyethoxy)ethoxy]ethanol]
[2]
Conditions	mass density [kg/m3]	speed of sound [m/s]
288.15 K	1050.1	1470
293.15 K	1045.75	1452
298.15 K	1041.32	1436
303.15 K	1036.84	1421
308.15 K	1032.27	1408
313.15 K	1027.76	1393
318.15 K	1023.3	1376

COCCOCCO [2-(2-methoxyethoxy)ethanol]
[2]
Conditions	mass density [kg/m3]	speed of sound [m/s]
288.15 K	1024.6	1451
293.15 K	1020.2	1434
298.15 K	1015.79	1416
303.15 K	1011.36	1399
308.15 K	1006.92	1382
313.15 K	1002.47	1366
318.15 K	998.009	1349

COCCO [2-methoxyethan-1-ol]
[2]
Conditions	mass density [kg/m3]	speed of sound [m/s]
288.15 K	969.794	1380
293.15 K	965.063	1367
298.15 K	960.447	1351
303.15 K	955.825	1337
308.15 K	951.214	1321
313.15 K	946.562	1304
318.15 K	941.864	1287
